In US20130196991A1, “SUBSTITUTED INDOLES, ANTIVIRAL ACTIVE COMPONENT, METHOD FOR PREPARATION AND USE THEREOF” (priority 2010, published 2013):
Counter-ions that a name gives are not always drawn. Like-named read-outs stand apart in the source and are kept apart here.

System: JFH-1 HCV
Test: microbe, parasite or virus in culture
Type: cell-based, hepatitis C virus (HCV)
Experimental: Determination of antiviral activity of compounds of the general formula 1 towards hepatitis C viruses.
Determination of antiviral activity of compounds of the general formulas 1, 1.1, 1.2, 1.3, 1.3.1, 1.3.1.1 towards HCV was carried out on Huh7 cell culture. Immune in vitro (ELISA—enzyme-linked immunosorbent assay) test ELISA towards HCV virus cor-antigen was used. By means of this test inhibition effectiveness of antigen production (and, consequently, virus replication) by tested compounds in cells infected by JFH-1 virus was measured. Used in this experiment Huh7 cell culture having been infected with HCV virus is capable to support full range of viral replication.
Recombinant JFH-1 HCV virus used in the experiment was prepared by means of transfection of Huh7 cells by RNA JFH-1, prepared by transcription in vitro. JFH-1 DNA [Wakita, T. u ∂p. Production of Infectious Hepatitis C Virus in Tissue Culture from a Cloned Viral Genome. Nature Medicine 2005, 11:791-796.]) used as DNA matrix for transcription (NCBI, catalogue number AB047639, was synthesized chemically.
Huh7 cells were sowed in 96-well plates (3.0×10^3 cells in every well) Huh-7 medium (50 μl per every well). 9 solutions of every tested compound in Huh-7 medium in the range of concentrations of 0.09-200 μM were prepared. In 4 h after cell sowing the initial solution was removed by aspiration, after that 50 μl of tested compound solution and 50 μl of JFH-1 HCV were added to every well. As a result, the final concentrations of the tested compounds were in the range of 0.045-100 μM. If required the step of infection was carried out in 24 h after addition of tested compounds. After incubation for 16 h viral medium was removed by aspiration, and the tested compounds were added to the cultures in initial concentration to final value of 200 μl. The cells and tested compounds were incubated additionally for 4 days at 37° C. in the atmosphere of air containing 5% CO2. After the removal of nutrient solution the cells were fixed by addition of acetone/methanol (1:1) mixture in amount of 250 μl/well for 1 minute, washed three times with Phosphate Buffer (PBS buffer and then they were blocked by 10% FBS-PBS solution (150 μl/well)) for 1 h at room temperature. Each well was washed three times with PBS solution, incubated with mouse monoclonal antibodies to HCV cor-antigen (Affinity BioReagents, Catalogue: MA1-080), dissolved in FBS-PBS buffer (100 μl/well, prepared from the initial concentrate, diluted in the ratio 1:500 in 10% FBS-PBS), for 2 h at 37° C. Each well was washed three times with PBS solution, incubated with antibodies specific to mouse immunoglobulins, conjugated with horseradish peroxidase (HRP, 100 mkl/well of solution prepared from the initial concentrate, diluted in ratio 1:2500 in 10% FBS-PBS) for 1 h at 37° C. Each well was washed three times with PBS solution, then treated with OPD solution in amount of 100 μl/well (prepared by dilution of one OPD tablet in B 12 ml of citrate/phosphate buffer with addition of 5 μl of 30% H2O2) for 30 min in darkness at room temperature. The reaction was stopped by addition of 2N H2SO4 (100 μl/well), after that optical density at 490 nm was measured. IC50 value representing the concentration of the tested compound at which virus replication is lowered twice was calculated for every tested compound using Xlfit program according to the method described in [Wakita, T. u ∂p. (2005). Production of Infectious Hepatitis C Virus in Tissue Culture from a Cloned Viral Genome. Nature Medicine; 11:791-796.].

[1] = Hepatitis C virus, Huh-7, read-out: Inhibition of hepatitis C virus (IC50)

SMILES	IC50 [1]	IC50 (Huh7 cell culture infected with recombinant JFH-1 HCV, ELISA of cor-antigen, concentration at which virus replication is lowered twice, read-out: Inhibition of hepatitis C virus (IC50))
Clc1ccc(Cn2c(CN3CCCC3)nc3ccccc32)cc1 [I Control, Clemizole, reference compound]	9000 nM	
c1ccc(CN2CCCn3c4c(c5cc(C6CCCCC6)ccc53)CCCC42)cc1 (centres unmarked) [1.2(8)]	1600 nM	
CN1CCN(C(=O)C2CCN(Cc3cc4ccccc4n3C)CC2)CC1 [1.3.1.1(15) * 2 HCl, 1-Methyl-2-({4-[(4-methylpiperazin-1-yl)carbonyl]piperidin-1-yl}methyl)-1H-indole]	2400 nM	
CC(C)c1ccc2c(c1)c1c3n2CCN(CC(N)=O)C3CCC1 (centres unmarked) [1.2(1), 2-(8-isopropyl-1,2,3a,4,5,6-hexahydro-3H-pyrazino[3,2,1-jk]carbazol-3-yl)-acetamide]	1700 nM	
CCCN1CCN(C(=O)C2CCCN(Cc3cc4ccccc4n3C)C2)CC1 (centres unmarked) [1.3.2.1(14) * 2 HCl, 1-Methyl-2-({3-[(4-propylpiperazin-1-yl)carbonyl]piperidin-1-yl}methyl-1H-indoledihydrochloride]		2100 nM
CCCN1CCN(C(=O)C2CCN(Cc3cc4ccccc4n3Cc3ccc(Cl)cc3)CC2)CC1 [1.3.1.1(13), {1-[1-(4-chlorobenzyl)-1H-indol-2-ylmethyl]-piperidin-4-yl}-(4-propylpiperazin-1-yl)-methanone]	300 nM	
CCCN1CCN(C(=O)C2CCCN(Cc3cc4ccccc4n3Cc3ccc(Cl)cc3)C2)CC1 (centres unmarked) [1.3.2.1(13) * 2 HCl, 1-(4-chlorobenzyl)-2-({3-[(4-propylpiperazin-1-yl)carbonyl]piperidin-1-yl}methyl)-1H-indole dihydrochloride]	400 nM	
CCCN1CCN(C(=O)C2CCN(Cc3cc4ccccc4n3C)CC2)CC1 [1.3.1.1(14) * 2 HCl, 1-Methyl-2-({4-[(4-propylpiperazin-1-yl)carbonyl]piperidin-1-yl}methyl)-1H-indole dihydrochloride]	2100 nM	
